# According to patent US8680111B2 (Pfizer Inc., priority 2012, dated 2014):
# Like-named read-outs stand apart in the source and are kept apart here.
# What was measured:
# [1] = biological target: T1, human recombinant wild-type ALK kinase domain (amino acids 1093-1411) (Homo sapiens, UniProt Q9UM73); assay: Wild-type ALK enzyme assay (microfluidic mobility shift); type: biochemical; conditions: ATP 60 μM, competitive inhibition fit
# T1 construct: ALK kinase domain (amino acids 1093-1411); made in house
# Protocol: The reactions were incubated for 1 h at room temperature, stopped by the addition of 0.1 M EDTA, pH 8, and the extent of reactions (˜15-20% conversion with no inhibitor) was determined after electrophoretic separation of the fluorescently labeled peptide substrate and phosphorylated product on an LabChip EZ Reader II (Caliper Life Sciences, Hopkinton, Mass.).
# [2] = biological target: T2, WT EML4-ALK (NIH-3T3 EML4-ALK wt v1 cells) (Homo sapiens, UniProt Q9UM73); assay: Cellular phospho-ALK (Tyr1604) ELISA assay for WT EML4-ALK; type: cell-based; conditions: 1 hour
# T2 construct: expressed in transfected cells; the other entry of the earlier key: EML4 (Q9HC35, Echinoderm microtubule-associated protein-like 4)
# Protocol: (§1) Cellular Phospho-ALK (Tyr1604) ELISA Assay for EML4-ALK:
# (§2) The cells were maintained at 37° C. in a 5% CO2 incubator in DMEM (Invitrogen, Carlsbad, Calif.) medium supplemented with 1% L-glutamine, 1% penicillin and streptomycin, 1 ug/ml puromycin and 10% new born calf serum (NCS) in T-75 flasks.
# (§3) Cells were washed with PBS and re-suspended in DMEM medium supplemented with 0.5% NCS and 1% pen/strep and seeded into 96-well plates at density of 20,000 cells/well/100 μl and incubated in the incubator at 37° C. and 5% CO2. After 20 hours of incubation, 100 μl of assay media (DMEM) in presence of designated PF-compounds concentrations or controls (DMSO) were added into plates and incubated for 1 hour in the incubator. Media was then removed and lysis buffer, containing phosphatase inhibitors and phenylmethanesulfonyl fluoride (PMSF), was added to wells and shaken at 4° C. for 30 minutes to generate protein lysates.
# (§4) A phospho-ALK (Tyr1604) rabbit antibody was coated onto the 96-well microplates. 50 μl of cell lysates were added to the antibody coated plate and incubated at room temperature for 2 hours. Following extensive washing with 0.1% Tween 20 in PBS to remove unbound materials, ALK mouse mAb was added to detect captured phospho-ALK (Tyr1604) and phospho-ALK fusion proteins. Anti-mouse IgG, HRP-linked antibody was then used to recognize the bound detection antibody. Finally, the chemiluminescent reagent was added and incubated for 10 minutes for signal development. The assay plates were read in the Envision plate reader in the luminescent mode. IC50 values were calculated by a concentration-response curve fitting using a four-parameter analytic method.
# [3] = biological target: T3, human recombinant L1196M ALK kinase domain (amino acids 1093-1411) (Homo sapiens, UniProt Q9UM73, L1196M); assay: L1196M mutant ALK enzyme assay (microfluidic mobility shift); type: biochemical
# T3 construct: ALK kinase domain (amino acids 1093-1411); made in house
# [4] = biological target: T4, L1196M EML4-ALK (NIH-3T3 EML4-ALK v1 L1196M cells) (Homo sapiens, UniProt Q9UM73, L1196M); assay: Cellular phospho-ALK (Tyr1604) ELISA assay for L1196M EML4-ALK; type: cell-based
# T4 construct: expressed in transfected cells; the other entry of the earlier key: EML4 (Q9HC35, Echinoderm microtubule-associated protein-like 4)
# Protocol: as §1, §2, §3, §4
# [5] = read-out: WT ALK enzyme assay (Ki)
# [6] = read-out: ELISA assay for WT EML4-ALK (IC50)
# [7] = ATP 60 μM, 0.5 nM enzyme, competitive inhibition fit, read-out: L1196M ALK enzyme assay (Ki)
# [8] = NIH-3T3 EML4-ALK v1 L1196M cells, 1 hour, phospho-ALK (Tyr1604), read-out: ELISA assay for L1196M EML4-ALK (IC50)
SMILES,"Ki [1, 5] [nM]","IC50 [2, 6] [nM]","Ki [3, 7] [nM]","IC50 [4, 8] [nM]",also measured
CC1Oc2cc(cnc2N)-c2c(cnn2C)CCCCCOc2ccc(F)cc21 (stereo not drawn),–,–,–,–,"ring closure, isolated yield (cc_pd bond, Pd(OAc)2/cataCXium A/KOAc, t-amyl alcohol, 30.0 mM, 120.0 °C): 43%"
Cn1ncc2c1-c1cnc(N)c(c1)OCc1cc(F)ccc1OCCC2,–,–,–,–,"ring closure, isolated yield (ether bond, 13-membered ring, NaH, DMF, 51.0 mM, 50.0 °C, 2 steps): 37%"
"C[C@H]1Oc2nc(cnc2N)-c2c(nn(C)c2C#N)CN(C2CC2)C(=O)c2ccc(F)cc21 [Example 54, (10R)-7-amino-16-cyclopropyl-12-fluoro-2,10-dimethyl-15-oxo-10,15,16,17-tetrahydro-2H-8,4-(azeno)pyrazolo[4,3-h][2,5,11]benzoxadiazacyclotetradecine-3-carbonitrile]",< 0.07,0.332,0.06,3.03,"ring closure, isolated yield (cc_pd bond, 12-membered ring, Pd(OAc)2/cataCXium A/PivOH/KOAc, t-AmOH/water (1 drop), 37.0 mM, […]): 54%"
"C[C@H]1Oc2nc(cnc2N)-c2cn(C)nc2CN(C)C(=O)c2ccc(F)cc21 [Example 56, (10R)-7-amino-12-fluoro-2,10,16-trimethyl-16,17-dihydro-2H-8,4-(azeno)pyrazolo[4,3-h][2,5,11]benzoxadiazacyclotetradecin-15(10H)-one]",0.2,1.83,0.88,35,"ring closure, isolated yield (cc_pd bond, 12-membered ring, Pd(OAc)2/cataCXium A/KOAc, t-amyl alcohol, 69.8 mM, 120.0 °C): 6%"
"Cc1cnc2nc3c(n2c1)-c1cnc(N)c(c1)O[C@H](C)c1cc(F)ccc1C(=O)N(C)C3 [Example 57, (5R)-8-amino-3-fluoro-5,14,19-trimethyl-18,19-dihydro-7,11-(metheno)-pyrimido[2′,1′:2,3]imidazo[4,5-h][2,5,11]benzoxadiazacyclotetradecin-20(5H)-one]",–,–,–,–,"Ki ([1]; WT ALK enzyme assay (Ki)): 0.14 nM; IC50 ([2]; ELISA assay for WT EML4-ALK (IC50)): 6.79 nM; Ki ([3]; L1196M ALK enzyme assay (Ki)): 2 nM; ring closure, isolated yield (amide bond, 12-membered ring, HATU/DIEA, DMF, 25.1 mM): 52%; IC50 ([4]; ELISA assay for L1196M EML4-ALK (IC50)): 365 nM"
"C[C@H]1Oc2cc(nnc2N)-c2c(nn(C)c2C#N)CN(C)C(=O)c2ccc(F)cc21 [Example 60, (10R)-7-amino-12-fluoro-2,10,16-trimethyl-15-oxo-10,15,16,17-tetrahydro-2H-8,4-(metheno)pyrazolo[4,3-h][2,5,6,11]benzoxatriazacyclotetradecine-3-carbonitrile]",4.6,–,21.5,–,"ring closure, isolated yield (amide bond, 12-membered ring, HATU/DIEA, DMF/THF, 18.6 mM, 0.0 °C): 9%"
"CCc1onc2c1-c1cnc(N)c(c1)O[C@H](C)c1cc(F)ccc1C(=O)N(C)C2 [Example 82, (10R)-7-amino-3-ethyl-12-fluoro-10,16-dimethyl-16,17-dihydro-8,4-(metheno)[1,2]oxazolo[4,3-h][2,5,11]benzoxadiazacyclotetradecin-15(10H)-one]",< 0.2,11.1,2.39,183,"ring closure, isolated yield (amide bond, 12-membered ring, 3 steps): 66%"
"C[C@@H]1Oc2nc(cnc2N)-c2cn(C)nc2CN(C)C(=O)c2ccc(F)cc21 [Example 83, (10S)-7-amino-12-fluoro-2,10,16-trimethyl-16,17-dihydro-2H-8,4-(azeno)pyrazolo[4,3-h][2,5,11]benzoxadiazacyclotetradecin-15(10H)-one]",47.6,–,74,–,"ring closure, isolated yield (cc_pd bond, 12-membered ring, Pd(OAc)2/cataCXium A/KOAc, t-amyl alcohol, 120.0 °C, 2 steps): 11%"
"C[C@H]1Oc2nc(cnc2N)-c2c(C#N)n[nH]c2CN(C)C(=O)c2ccc(F)cc21 [Example 89, (10R)-7-amino-12-fluoro-10,16-di methyl-15-oxo-10,15,16,17-tetrahydro-1H-8,4-(azeno)pyrazolo[4,3-h][2,5,11]benzoxadiazacyclotetradecine-3-carbonitrile]",0.339,6.43,0.275,56,"ring closure, isolated yield (amide bond, 12-membered ring, HATU/DIEA, DMF, 12.6 mM): 15.8%"
"C[C@H]1Oc2nc(cnc2N)-c2c(C#N)nn(CC(F)F)c2CN(C)C(=O)c2ccc(F)cc21 [Example 90, (10R)-7-amino-1-(2,2-difluoroethyl)-12-fluoro-10,16-dimethyl-15-oxo-10,15,16,17-tetrahydro-1H-8,4-(azeno)pyrazolo[4,3-h][2,5,11]benzoxadiazacyclotetradecine-3-carbonitrile]",0.079,1.32,0.249,13,"ring closure, isolated yield (cc_pd bond, 12-membered ring, Pd(OAc)2/cataCXium A/KOAc, t-amyl alcohol, 46.7 mM): 11%"
"C[C@H]1Oc2nc(cnc2N)-c2c(C#N)cccc2CN(C)C(=O)c2ccc(F)cc21 [Example 97, (5R)-8-amino-3-fluoro-5,17-dimethyl-18-oxo-5,16,17,18-tetrahydro-7,11-(azeno)dibenzo[g,l][1,4,10]oxadiazacyclotetradecine-12-carbonitrile]",3.5,–,24.7,–,"ring closure, isolated yield (amide bond, 12-membered ring, HATU/DIEA, DMF, 6.7 mM): 42%"
"C[C@H]1Oc2cc(cnc2N)-c2c(C#N)nn(C)c2CN(C)C(=O)c2ccc(F)cc21 [Example 114, (10R)-7-amino-12-fluoro-1,10,16-trimethyl-15-oxo-10,15,16,17-tetrahydro-1H-8,4-(metheno)pyrazolo[4,3-h][2,5,11]benzoxadiazacyclotetradecine-3-carbonitrile]",0.271,3.29,1.36,78.2,–
"C[C@H]1Oc2nc(cnc2N)-c2c(C#N)nn(C)c2CN(C)C(=O)c2ccc(F)cc21 [Example 115, (10R)-7-amino-12-fluoro-1,10,16-trimethyl-15-oxo-10,15,16,17-tetrahydro-1H-8,4-(azeno)pyrazolo[4,3-h][2,5,11]benzoxadiazacyclotetradecine-3-carbonitrile]",< 0.08,0.96,0.09,8.18,–
"COc1cnc2cc1-c1cnc(N)c(c1)O[C@H](C)c1cc(F)ccc1C(=O)N(C)CC2 [Example 116, (1R)-4-amino-19-fluoro-9-methoxy-1,15-dimethyl-14,15-dihydro-1H-3,7:8,12-di(metheno)-2,5,11,15-benzoxatriazacyclooctadecin-16(13H)-one]",> 1500,> 10000,> 3000,> 10000,–
"C[C@H]1Oc2cc(cnc2N)-c2c(C#N)noc2CN(C)C(=O)c2ccc(F)cc21 [Example 117, (10R)-7-amino-12-fluoro-10,16-dimethyl-15-oxo-10,15,16,17-tetrahydro-8,4-(metheno)[1,2]oxazolo[4,5-h][2,5,11]benzoxadiazacyclotetradecine-3-carbonitrile]",2.18,35.2,17.8,393,–
"Cn1nc2c(c1C#N)-c1cnc(N)c(c1)OCc1cc(F)ccc1COC2 [Example 118, 7-amino-12-fluoro-2-methyl-2,10,15,17-tetrahydro-8,4-(metheno)pyrazolo-[4,3-h][2,11,5]benzodioxazacyclotetradecine-3-carbonitrile]",17.8,217,64.7,1400,–
CC1Oc2cc(cnc2N)-c2c(nn(C)c2C#N)COCc2ccc(F)cc21 (stereo not drawn) [Example 119],1.6,7.79,13.4,264,–
"C[C@H]1Oc2cc(cnc2N)-c2c(nn(C)c2C#N)CNC(=O)c2ccc(F)cc21 [Example 132, (10R)-7-amino-12-fluoro-2,10-dimethyl-15-oxo-10,15,16,17-tetrahydro-2H-8,4-(metheno)pyrazolo[4,3-h][2,5,11]benzoxadiazacyclotetradecine-3-carbonitrile]",3.32,35.3,16.5,892,–
"CCn1nnc2c1-c1cnc(N)c(c1)O[C@H](C)c1cc(F)ccc1C(=O)N(C)C2 [Example 133, (10R)-7-amino-3-ethyl-12-fluoro-10,16-dimethyl-16,17-dihydro-3H-4,8-(metheno)[1,2,3]triazolo[4,5-h][2,5,11]benzoxadiazacyclotetradecin-15(10H)-one]",3.06,95.8,32.8,997,–
"C[C@H]1Oc2cc(cnc2N)-c2c(nnn2CC2CCC2)CN(C)C(=O)c2ccc(F)cc21 [Example 135, (10R)-7-amino-3-(cyclobutylmethyl)-12-fluoro-10,16-dimethyl-16,17-dihydro-3H-8,4-(metheno)[1,2,3]triazolo[4,5-h][2,5,11]benzoxadiazacyclotetradecin-15(10H)-one]",2.1,45.9,12.6,814,–
"C[C@H]1Oc2cc(cnc2N)-c2c(nnn2C2CCC2)CN(C)C(=O)c2ccc(F)cc21 [Example 136, (10R)-7-amino-3-cyclobutyl-12-fluoro-10,16-dimethyl-16,17-dihydro-3H-8,4-(metheno)[1,2,3]triazolo[4,5-h][2,5,11]benzoxadiazacyclotetradecin-15(10H)-one]",0.6,28.5,4.8,419,–
